From article PMC4108065, “Inflammation and pancreatic cancer: molecular and functional interactions between S100A8, S100A9, NT-S100A8 and TGFβ1” (Cell Communication and Signaling : CCS, 2014)

What was measured:
Assay type in all cases: cell-based, human
[1] = tested on: Akt phosphorylation sites Thr308 and Ser473; assay: Akt signaling, western blot in PDAC cell lines; settings: BxPC3, Capan1, MiaPaCa2, Panc1, 10 min; for Akt Ser473 phosphorylation: 10 nM S100A8, S100A9, S100A8/A9, 50 nM NT-S100A8; for Akt Thr308 phosphorylation: 10 nM S100A8, S100A9, S100A8/A9, 50 nM NT-S100A8, 0.02 ng/ml TGFβ1
Method: (§1) Five million cells were seeded in Petri dishes (ø 10 cm) and cultured for 24 hours in their respective complete media prior to starting the experiments. Cells remained non-stimulated (negative control) or were stimulated with 50 mU insulin (positive control) (Insuman Rapid, Sanofi-Aventis, Deutschland, GmbH) for 10 min; in parallel, experimental cells were stimulated with 50 nM NT-S100A8, 0,02 ng/ml TGFβ1 (ProSpec-Tany TechnoGene), 10 nM S100A8 and 10 nM S100A9 alone or combined for 10 min. Following stimulations, Petri dishes were immediately transferred into an ice bath, and the cells were washed twice with cold PBS, re-suspended in 100 μl of cold lysis buffer [20 mM Tris–HCl, pH 7.5, 150 mM NaCl, 1 mM EDTA, 1% Triton-X 100, 50 mM NaF, 10 mM Na4P2O7,1 mM Na3VO4, and 10% protease inhibitor cocktail (Sigma Aldrich SRL, Milano, Italy)]. Lysates were centrifuged for 10 min at 14,000 rpm at 4°C and, in the supernatants, total proteins were measured using the Bio-Rad protein assay (Bio-Rad Laboratories, Milano, Italy). Each experiment was performed at least in triplicate.
(§2) For each sample, 40 μg proteins were electrophoresed through 4–12% NuPAGE®NovexBis-Tris SDS–PAGE Gel or 3-8% NuPAGE®NovexTris-Acetate SDS–PAGE Gel (Invitrogen S.R.L., Life Technologies, Monza, Italy) and electrophoretically transferred to Nitrocellulose Membrane (iBlot® Transfer Stack, Invitrogen S.R.L.) by means of the iBlotTMDry Blotting System (Invitrogen S.R.L.). Following incubation for 1 hour in a blocking buffer [5% low fat powder milk re-suspended in PBS-T (PBS with 0.1% Tween-20)], membranes were incubated overnight at 4°C with the primary antibodies [antiphospho IkB-α (Ser^32) (Santa Cruz Biotechnology, Inc., Santa Cruz, CA, USA); anti-phospho-Akt (Ser^473), anti-phospho-Akt (Thr^308), anti-Akt and anti-phospho-S6 Ribosomal Protein (Ser^235/236), anti-cleaved Caspase-3, anti-phospho-Stat3 Tyr^705, anti-β-actin, anti-phospho mTOR (Ser^2448, Ser^2481) (Cell Signaling Technology, Danvers, MA, USA); anti-RAGE (R&D Systems, Minneapolis, MN, USA) ] diluted 1:5000 (β-actin), 1:2000 (mTOR, cleaved Caspase-3, Stat3) or 1:3000 (all the others) in the blocking buffer. The blots, washed three times in PBS-T for 15 min, were incubated with […] anti-rabbit (Cell Signaling Technology) or anti-goat (Sigma Aldrich) secondary antibodies and then washed three times in PBS-T for 15 min and developed with the ECL Advance Western Blot Detection Kit (GE Healthcare Technologies, Milan, Italy).

[2] = tested on: mTOR Ser2481, Ser2448 and S6 Ribosomal Protein phosphorylation; assay: mTOR signaling, western blot in PDAC cell lines; settings: BxPC3, Capan1, MiaPaCa2, Panc1, 10 min, 10 nM S100A8, S100A9, S100A8/A9, 50 nM NT-S100A8, 0.02 ng/ml TGFβ1
Method: as §1, §2

[3] = tested on: Smad4 silenced MiaPaCa2 IκBα and S6RP phosphorylation; assay: Signaling western blot in Smad4 silenced MiaPaCa2; settings: Smad4-siRNA MiaPaCa2 vs MiaPaCa2, 10 minutes, 0.02 ng/ml TGFβ1, 10 nM S100A8, 50 nM NT-S100A8; for effect of silenced Smad4 on S6RP phosphorylation: western blot; for effect of Smad4 silencing on inhibition of NF-κB: IκBα Ser32 western blot
Method: The pancreatic cancer cell lines used were: Panc1 and Suit2, donated by Prof Aldo Scarpa (University of Verona, Italy); BxPC3, from Dr Andrea Galli (University of Florence, Italy); MiaPaCa2, Capan1 and the human embryonic kidney Hek293 cell lines, supplied by the American Type Culture Collection (Manassas, VA, USA). BxPC3, Capan1 and Panc1 were cultured in RPMI (Gibco/BRL, Gaithhersburg, MD, USA) supplemented with 10% (BxPC3 and Panc1) and 20% (Capan1) fetal calf serum (FCS) (Gibco/BRL), 1% L-glutamine (Gibco/BRL) and 0.1% gentamycin (Gibco/BRL). MiaPaCa2 and Hek293 were cultured in DMEM (Gibco/BRL) supplemented with 10% FCS, 2% L-glutamine and 0.1% Gentamycin. BxPC3 cells were transfected with the expression vector pBK-cytomegalovirus (CMV)-SMAD4/DPC4, as previously described. One SMAD4/DPC4-expressing clone (BxPC3-SMAD4+) was used for the experiments. Smad4 silencing of MiaPaCa2 cells was performed as previously described.
as §1, §2

BxPC3 = assay: XTT cell viability assay, BxPC3; settings: 48 hours, TGFβ1 0.02 ng/ml, NT-S100A8 50 nM, S100A8 10 nM, S100A9 10 nM, alone or combined, at least three independent experiments in quadruplicate
Method: BxPC3, Capan1, MiaPaCa2, Panc1 and BxPC3-SMAD4+ cells were seeded (2000 cells per well) in 96-well cell culture plates and cultured in complete media for 24 hours. Media were then replaced with fresh cell culture media in absence (control) or in presence of TGFβ1 (0.02 ng/ml) and NT-S100A8 (50 nM), alone or combined or in absence (control) or in presence of TGFβ1 (0.02 ng/ml), S100A8 (10 nM) and S100A9 (10 nM) alone or combined. Cell growth was assessed after 48 hours using the XTT cell viability test (Roche, Milano, Italy). At least three independent experiements, each made in quadruplicate, were run. The results were expressed as percentage with respect to the median Abs450nm of control cells run in the same experimental set.

| Substance | Akt Ser473 phosphorylation [1] | Akt Thr308 phosphorylation [1] | mTOR Ser2448 phosphorylation [2] | mTOR Ser2481 phosphorylation [2] | effect of silenced Smad4 on S6RP phosphorylation [3] | BxPC3 % to Control Mean±SEM (BxPC3) | effect of Smad4 silencing on inhibition of NF-κB [3] |
| --- | --- | --- | --- | --- | --- | --- | --- |
| NT-S100A8: 14 N-terminal aminoacid peptide of S100A8, isolated from PDAC tissues (MLTELEKALNSIID; UniProt P05109 1-14, looked up, fragment) | augmented in the same cell lines | reduced in Capan1 and MiaPaCa2 | inducing Ser^2481 and Ser^2448 phosphorylation in all cell lines | inducing Ser^2481 and Ser^2448 phosphorylation in all cell lines | markedly reduced S6RP phosphorylation |  |  |
| S100A8: inflammatory calcium binding protein S100A8 (ProSpec-Tany TechnoGene) | reduced Akt Ser^473 phosphorylation in Capan1, MiaPaCa2 and Panc1 cells | induced in BxPC3, and reduced in the other cell lines | induced mTOR Ser^2448 phosphorylation in all cell lines | Ser^2481 in BxPC3 and Capan1 | markedly reduced S6RP phosphorylation | 111.45±5.92 % to Control | reduced the inhibition of NF-κB |
| S100A9: inflammatory calcium binding protein S100A9, S100A8 binding partner | reduced Akt Ser^473 phosphorylation in Capan1, MiaPaCa2 and Panc1 cells | induced in BxPC3, and reduced in the other cell lines | induced mTOR Ser^2448 phosphorylation in all cell lines | Ser^2481 in BxPC3 and Capan1 |  | 103.53± 5.18 % to Control |  |
| TGFβ1: transforming growth factor beta 1 (ProSpec-Tany TechnoGene) |  | inhibited Akt Thr^308, but not Akt Ser^473 phosphorylation in Smad4 expressing cells | inducing Ser^2481 and Ser^2448 phosphorylation in all cell lines | inducing Ser^2481 and Ser^2448 phosphorylation in all cell lines | markedly reduced S6RP phosphorylation | 96.85 ± 5.02 % to Control | reduced the inhibition of NF-κB |
